In one assay the target is T1, human TBK1 (Homo sapiens, UniProt Q9UHD2).
T1 construct: Recombinant full-length N-terminally His-tagged human TBK1; His (N); purchased Life Technologies PR5618B; host or cells: insect cells
T1 sequence (Q9UHD2 1-729): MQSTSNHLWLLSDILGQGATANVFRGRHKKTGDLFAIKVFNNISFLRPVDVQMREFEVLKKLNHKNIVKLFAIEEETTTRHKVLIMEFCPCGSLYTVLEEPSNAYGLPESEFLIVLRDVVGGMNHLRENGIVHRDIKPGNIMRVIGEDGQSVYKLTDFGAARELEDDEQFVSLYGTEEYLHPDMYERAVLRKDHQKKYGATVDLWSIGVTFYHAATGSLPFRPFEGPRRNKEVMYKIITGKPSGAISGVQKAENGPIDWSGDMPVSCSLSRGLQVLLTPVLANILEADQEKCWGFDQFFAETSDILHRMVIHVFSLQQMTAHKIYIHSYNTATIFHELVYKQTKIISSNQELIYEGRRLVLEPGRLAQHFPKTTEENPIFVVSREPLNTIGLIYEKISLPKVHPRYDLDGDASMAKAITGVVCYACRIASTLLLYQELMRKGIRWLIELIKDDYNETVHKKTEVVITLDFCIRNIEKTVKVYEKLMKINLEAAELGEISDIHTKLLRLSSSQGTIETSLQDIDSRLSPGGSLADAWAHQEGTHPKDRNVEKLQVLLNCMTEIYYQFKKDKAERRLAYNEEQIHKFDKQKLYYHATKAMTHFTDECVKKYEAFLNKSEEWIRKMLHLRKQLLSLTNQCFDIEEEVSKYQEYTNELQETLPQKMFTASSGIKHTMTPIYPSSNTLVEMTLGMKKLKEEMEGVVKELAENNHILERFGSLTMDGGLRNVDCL
Briefly: TBK1 high ATP kinase assay (TR-FRET). The following applies: 1 mM ATP, selectivity assay, 15 min preincubation. In kind it is biochemical. As to the method:
TBK1 High ATP Kinase Assay
TBK1-inhibitory activity of compounds of the present invention at a high ATP concentration after preincubation of enzyme and test compounds was quantified employing the TR-FRET-based TBK1 assay as described in the following paragraphs.
Recombinant full-length N-terminally His-tagged human TBK1, expressed in insect cells and purified by Ni-NTA affinity chromatography, was purchased from Life Technologies (Cat. No PR5618B) and used as enzyme. As substrate for the kinase reaction biotinylated peptide biotin-Ahx-[…] (C-terminus in amide form) was used which can be purchased e.g. form the company Biosyntan (Berlin-Buch, Germany).
The concentration of TBK1 was adjusted depending of the activity of the enzyme lot and was chosen appropriate to have the assay in the linear range, typical concentrations were in the range of 0.002-0.004 μg/mL. The reaction was stopped by the addition of 3 μL of a solution of TR-FRET detection reagents (0.33 μM streptavidine-XL665 [Cisbio Bioassays, Codolet, France], 2.5 nM anti-phosho-Serine antibody [Merck Millipore, “STK antibody”, cat. #35-002] and 1.25 nM LANCE EU-W1024 labeled anti-mouse IgG antibody [Perkin-Elmer, product no. AD0077]) in an aqueous EDTA-solution (167 mM EDTA, 0.13% (w/v) bovine serum albumin in 100 mM HEPES/NaOH pH 7.5).
(In general: Time-resolved FRET reads energy transfer from a long-lived donor to a nearby acceptor.)

Another assay addresses T2, human ROCK-II (Homo sapiens, UniProt O75116).
T2 construct: human ROCK-II (amino acids 11-552); His6 (N); purchased Eurofins 14-451-K; host or cells: baculovirus infected SF21 insect cells
Briefly: ROCK-II kinase assay (ADP-Glo). In kind it is biochemical. The following applies: 10 μM ATP, 15 min preincubation, 30 min at 22° C. As to the method: ROCK-II-inhibitory activity of compounds of the present invention was quantified employing the ROCK-II assay as described in the following paragraphs. In essence, the enzyme activity is measured by quantification of the adenosine-di-phosphate (ADP), which is generated as a co-product of the enzyme reaction, via the “ADP-Glo™ Kinase Assay” kit from the company Promega. This detection system works as follows: In a first step the adenosine-tri-phosphate (ATP) not consumed in the kinase reaction is quantitatively converted to cAMP employing an adenylate cyclase (“ADP-Glo-reagent”), then the adenylate cyclase is stopped and the ADP generated in the kinase reaction converted to ATP which generates in a luciferase-based reaction a glow-luminescence signal (“Kinase Detection Reagent”).
As substrate for the kinase reaction the biotinylated peptide biotin-Ahx-[…] (C-terminus in amide form) was used which can be purchased e.g. from the company Biosyntan (Berlin-Buch, Germany).
The concentration of ROCK-II was adjusted depending of the activity of the enzyme lot and was chosen appropriate to have the assay in the linear range, a typical concentration is about 5 nM. The reaction was stopped by the addition of 2.5 μl of “ADP-Glo-reagent” (1:1, 5 fold diluted) and the resulting mixture was incubated at 22° C. for 1 h to convert the ATP not consumed in the kinase reaction completely to cAMP. […] The amount of emitted light was taken as a measure for the amount of ADP generated and thereby for the activity of the ROCK-II.
A general note: ADP-Glo turns the ADP formed in a reaction into a luminescent signal.

The target of the next assay is MAP4K1 (Homo sapiens, UniProt Q92918). Briefly: MAP4K1 binding competition assay (TR-FRET, Tracer 222).

pIC50: −log10 of the molar value.

One may read the pIC50 as −log10 of the IC50, conventionally taken in molar units.

T2 sequence (O75116 11-552): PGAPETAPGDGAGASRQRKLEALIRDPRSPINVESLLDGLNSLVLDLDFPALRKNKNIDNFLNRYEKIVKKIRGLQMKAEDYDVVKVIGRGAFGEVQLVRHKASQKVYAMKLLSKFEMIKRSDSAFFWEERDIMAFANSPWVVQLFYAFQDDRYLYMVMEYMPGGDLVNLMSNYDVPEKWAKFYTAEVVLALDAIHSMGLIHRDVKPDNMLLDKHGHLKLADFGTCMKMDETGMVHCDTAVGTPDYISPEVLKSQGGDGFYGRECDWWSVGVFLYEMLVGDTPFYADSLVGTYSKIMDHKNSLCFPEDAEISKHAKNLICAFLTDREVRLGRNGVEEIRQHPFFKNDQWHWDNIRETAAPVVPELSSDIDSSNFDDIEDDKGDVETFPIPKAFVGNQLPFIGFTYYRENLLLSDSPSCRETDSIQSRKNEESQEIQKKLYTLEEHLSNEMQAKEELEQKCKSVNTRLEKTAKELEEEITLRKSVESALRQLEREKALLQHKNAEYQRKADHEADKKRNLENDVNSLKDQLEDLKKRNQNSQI
MAP4K1, sequence (Q92918 whole entry): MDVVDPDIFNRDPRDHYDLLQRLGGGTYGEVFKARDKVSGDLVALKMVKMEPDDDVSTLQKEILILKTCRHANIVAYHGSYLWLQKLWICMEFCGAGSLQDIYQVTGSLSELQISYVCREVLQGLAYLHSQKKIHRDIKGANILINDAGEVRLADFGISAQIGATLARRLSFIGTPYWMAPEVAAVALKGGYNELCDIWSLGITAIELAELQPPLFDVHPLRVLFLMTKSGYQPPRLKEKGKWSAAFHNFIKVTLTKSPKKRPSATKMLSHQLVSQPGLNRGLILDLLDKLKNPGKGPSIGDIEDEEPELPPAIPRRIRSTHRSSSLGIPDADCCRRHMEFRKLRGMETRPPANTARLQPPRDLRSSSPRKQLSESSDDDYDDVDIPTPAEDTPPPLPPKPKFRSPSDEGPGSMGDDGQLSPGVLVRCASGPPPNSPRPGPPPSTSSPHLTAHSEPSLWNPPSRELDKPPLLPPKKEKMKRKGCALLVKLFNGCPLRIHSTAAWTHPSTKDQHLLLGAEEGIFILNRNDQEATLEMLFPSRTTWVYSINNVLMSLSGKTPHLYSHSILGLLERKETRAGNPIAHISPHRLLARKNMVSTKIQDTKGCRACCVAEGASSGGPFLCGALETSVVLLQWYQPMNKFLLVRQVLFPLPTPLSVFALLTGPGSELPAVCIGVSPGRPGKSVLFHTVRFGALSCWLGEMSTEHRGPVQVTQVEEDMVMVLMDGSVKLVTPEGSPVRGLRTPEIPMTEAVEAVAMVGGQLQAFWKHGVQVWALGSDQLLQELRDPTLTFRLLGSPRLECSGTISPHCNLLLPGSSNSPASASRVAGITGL

Take `Fc1cc(NC2=NCC3(CC3)CO2)cc(F)c1Oc1ccnc2[nH]cc(C3(C(F)(F)F)CC3)c12` [Example 10, N-[3,5-difluoro-4-({3-[1-(trifluoromethyl)cyclopropyl]-1H-pyrrolo[2,3-b]pyridin-4-yl}oxy)phenyl]-5-oxa-7-azaspiro[2.5]oct-6-en-6-amine]: the negative-log IC50 (pIC50) at human TBK1 is below 4.70.
`Fc1cc(NC2=NCC3(COC3)CO2)cc(F)c1Oc1ccnc2[nH]cc(C3(C(F)(F)F)CCC3)c12` [Example 14, N-[3,5-difluoro-4-({3-[1-(trifluoromethyl)cyclobutyl]-1H-pyrrolo[2,3-b]pyridin-4-yl}oxy)phenyl]-2,6-dioxa-8-azaspiro[3.5]non-7-en-7-amine]: the values for the pIC50 at human ROCK-II, at human TBK1 and on MAP4K1 were 5.89, below 4.70 and 8.16, respectively.
As for `Fc1cc(NC2=NCC3(CCOC3)CO2)cc(F)c1Oc1ccnc2[nH]cc(C3(C(F)(F)F)CC3)c12` (racemic) [Example 5, (+/−)-N-[3,5-difluoro-4-({3-[1-(trifluoromethyl)cyclopropyl]-1H-pyrrolo[2,3-b]pyridin-4-yl}oxy)phenyl]-2,7-dioxa-9-azaspiro[4.5]dec-8-en-8-amine], at human TBK1, the negative logarithm of the IC50 (pIC50) was below 4.70.
For the compound `Fc1cc(NC2=NCC3(CCC3)CO2)cc(F)c1Oc1ccnc2[nH]cc(C3(C(F)(F)F)CC3)c12` [Example 12, N-[3,5-difluoro-4-({3-[1-(trifluoromethyl)cyclopropyl]-1H-pyrrolo[2,3-b]pyridin-4-yl}oxy)phenyl]-6-oxa-8-azaspiro[3.5]non-7-en-7-amine], the pIC50 on human TBK1 was below 4.70.
For the compound `Fc1cc(NC2=NCC3(COC3)CO2)cc(F)c1Oc1ccnc2[nH]cc(C3(C(F)(F)F)CC3)c12` [Example 8, N-[3,5-difluoro-4-({3-[1-(trifluoromethyl)cyclopropyl]-1H-pyrrolo[2,3-b]pyridin-4-yl}oxy)phenyl]-2,6-dioxa-8-azaspiro[3.5]non-7-en-7-amine], the negative-log IC50 (pIC50) is 6.30 at human ROCK-II, below 4.70 against human TBK1 and 8.30 at MAP4K1.
On human TBK1, `Fc1cc(NC2=NCC3(CCOC3)CO2)cc(F)c1Oc1ccnc2[nH]cc(C3(C(F)(F)F)CC3)c12` (single isomer, unassigned; enantiomer 1) [Example 6, N-[3,5-difluoro-4-({3-[1-(trifluoromethyl)cyclopropyl]-1H-pyrrolo[2,3-b]pyridin-4-yl}oxy)phenyl]-2,7-dioxa-9-azaspiro[4.5]dec-8-en-8-amine (single enantiomer 1)] gave a negative-log IC50 (pIC50) below 4.70.
`Fc1cc(NC2=NCC3(CCOCC3)CO2)cc(F)c1Oc1ccnc2[nH]cc(C3(C(F)(F)F)CCC3)c12` [Example 2, N-[3,5-difluoro-4-({3-[1-(trifluoromethyl)cyclobutyl]-1H-pyrrolo[2,3-b]pyridin-4-yl}oxy)phenyl]-2,9-dioxa-4-azaspiro[5.5]undec-3-en-3-amine]: the negative-log IC50 (pIC50) on human ROCK-II is 5.72; against human TBK1, below 4.70; on MAP4K1, 8.38.
`Fc1cc(NC2=NCC3(CCOCC3)CO2)cc(F)c1Oc1ccnc2[nH]cc(C3(C(F)(F)F)CC3)c12` [Example 11, N-[3,5-difluoro-4-({3-[1-(trifluoromethyl)cyclopropyl]-1H-pyrrolo[2,3-b]pyridin-4-yl}oxy)phenyl]-2,9-dioxa-4-azaspiro[5.5]undec-3-en-3-amine] gave a negative logarithm of the IC50 (pIC50) against human TBK1 below 4.70.
The compound `CC1(C)CN=C(Nc2cc(F)c(Oc3ccnc4[nH]cc(C5(C(F)(F)F)CC5)c34)c(F)c2)OC1` [Example 9, N-[3,5-difluoro-4-({3-[1-(trifluoromethyl)cyclopropyl]-1H-pyrrolo[2,3-b]pyridin-4-yl}oxy)phenyl]-5,5-dimethyl-5,6-dihydro-4H-1,3-oxazin-2-amine] showed a negative logarithm of the IC50 (pIC50) against human TBK1 below 4.70.
`Fc1cc(NC2=NCC3(CCOC3)CO2)cc(F)c1Oc1ccnc2[nH]cc(C3(C(F)(F)F)CC3)c12` (single isomer, unassigned; enantiomer 2) [Example 7, N-[3,5-difluoro-4-({3-[1-(trifluoromethyl)cyclopropyl]-1H-pyrrolo[2,3-b]pyridin-4-yl}oxy)phenyl]-2,7-dioxa-9-azaspiro[4.5]dec-8-en-8-amine (single enantiomer 2)] gave a pIC50 against human TBK1 below 4.70.
Turning to `Fc1cc(NC2=NCC3(CC3)CO2)cc(F)c1Oc1ccnc2[nH]cc(C3(C(F)(F)F)CCC3)c12` [Example 3, N-[3,5-difluoro-4-({3-[1-(trifluoromethyl)cyclobutyl]-1H-pyrrolo[2,3-b]pyridin-4-yl}oxy)phenyl]-5-oxa-7-azaspiro[2.5]oct-6-en-6-amine], the pIC50 at human ROCK-II is 5.80; at human TBK1 it was below 4.70; on MAP4K1, 8.40.
For `CC1(C)CN=C(Nc2cc(F)c(Oc3ccnc4[nH]cc(C5(C(F)(F)F)CCC5)c34)c(F)c2)OC1` [Example 4, N-[3,5-difluoro-4-({3-[1-(trifluoromethyl)cyclobutyl]-1H-pyrrolo[2,3-b]pyridin-4-yl}oxy)phenyl]-5,5-dimethyl-5,6-dihydro-4H-1,3-oxazin-2-amine], the figures for the pIC50 against human ROCK-II, at human TBK1 and at MAP4K1 were 5.39, below 4.70 and 8.21, respectively.
As for `Fc1cc(NC2=NCC3(CCOC3)CO2)cc(F)c1Oc1ccnc2[nH]cc(C3(C(F)(F)F)CCC3)c12` (racemic) [Example 13, (+/−)-N-[3,5-difluoro-4-({3-[1-(trifluoromethyl)cyclobutyl]-1H-pyrrolo[2,3-b]pyridin-4-yl}oxy)phenyl]-2,7-dioxa-9-azaspiro[4.5]dec-8-en-8-amine], the negative-log IC50 (pIC50) is 5.92 against human ROCK-II, below 4.70 against human TBK1 and 8.21 at MAP4K1.
On to `Fc1cc(NC2=NCC3(CCC3)CO2)cc(F)c1Oc1ccnc2[nH]cc(C3(C(F)(F)F)CCC3)c12` [Example 1, N-[3,5-difluoro-4-({3-[1-(trifluoromethyl)cyclobutyl]-1H-pyrrolo[2,3-b]pyridin-4-yl}oxy)phenyl]-6-oxa-8-azaspiro[3.5]non-7-en-7-amine], for which the figures for the pIC50 against human ROCK-II, against human TBK1 and at MAP4K1 were 5.25, below 4.70 and 8.07, respectively.

These data come from patent publication US20220047603A1, “SUBSTITUTED PYRROLOPYRIDINE-DERIVATIVES” (BAYER AKTIENGESELLSCHAFT, priority 2018, published 2022).
